Measured values: ChEMBL document CHEMBL1131558, “Synthesis of Dolastatin 15 mimetic peptoids” (1998)
Values after ≈ are worked out from the molar mass of the structure shown. Active and inactive are the calls of the source. The calls are words filed in the database; no cut-off is given here. Square brackets hold non-standard residues; d marks the D form. Peptide text beside a SMILES is read from it. * marks the point of attachment. X1 = COC1=CC(=O)N(C(=O)[C@@H](O*)C(C)C)[C@H]1Cc1ccccc1; NMe2Val = CC(C)[C@@H](C(=O)*)N(C)C; NMeV = CN[C@H](C(=O)O)C(C)C

What was measured:
P388 = experiment: Anticancer activity against lymphocytic leukemia P388 cells was determined; type: functional; conditions: Mus musculus, read-out: ED50 (the source's name)
Homo sapiens = species: Homo sapiens; experiment: Anticancer activity was determined by the inhibition of colony formation in liquid culture of KB human epidermoid carcinoma cells up to the concentration 31.6 ug/mL; NI means No inhibition; type: functional
L1210 = experiment: Anticancer activity was determined by the inhibition of colony formation in liquid culture of L-1210 leukemia cells up to the concentration 31.6 ug/mL; NI means No inhibition; type: functional, cell-based; conditions: Mus musculus
LNCaP = experiment: Anticancer activity was determined by the inhibition of colony formation in liquid culture of up to the concentration 31.6 ug/mL; NI means No inhibition; type: functional, cell-based; conditions: Homo sapiens
SK-OV-3 = experiment: Anticancer activity was determined by the inhibition of colony formation in liquid culture of SK-OV-3 ovarian cancer cells up to the concentration 31.6 ug/mL; NI means No inhibition; type: functional, cell-based; conditions: Homo sapiens

| Compound | EC50 (P388) | Activity (Homo sapiens) | Activity (L1210) | Activity (LNCaP) | Activity (SK-OV-3) |
| --- | --- | --- | --- | --- | --- |
| COC1=CC(=O)N(C(=O)[C@@H](OC(=O)[C@@H]2CCCN2C(=O)[C@@H]2CCCN2C(=O)[C@H](C(C)C)N(C)C(=O)[C@@H](NC(=O)[C@H](C(C)C)N(C)C)C(C)C)C(C)C)[C@H]1Cc1ccccc1 [DOLASTATIN 15] (NMe2Val-V[NMeV]PP-X1) | 2.4 ng/mL (≈ 2.87 nM) | – | – | – | – |
| CC(=O)N(CC(=O)N(CC(=O)N1CCC[C@H]1C(=O)N1CCCC1C(=O)N(CC(=O)N(CC(=O)N(C(C)C)C(C)C)C(C)C)C(C)C)C(C)C)Cc1ccccc1 (single isomer, unassigned) | – | inactive | inactive | inactive | inactive |
| CC(=O)N(CC(=O)N(CC(=O)N1CCC[C@@H]1C(=O)N1CCC[C@@H]1C(=O)N(CC(=O)N(CC(=O)N(C(C)C)C(C)C)C(C)C)C(C)C)C(C)C)Cc1ccccc1 (single isomer, unassigned) | – | inactive | inactive | inactive | inactive |
| CC(=O)N(CC(=O)N(CC(=O)N1CCC[C@H]1C(=O)N1CCC[C@H]1C(=O)N(CC(=O)N(CC(=O)N(C(C)C)C(C)C)C(C)C)C(C)C)C(C)C)Cc1ccccc1 | – | inactive | inactive | inactive | inactive |
| CC(C)N(CC(=O)N(C(C)C)C(C)C)C(=O)CN(C(=O)[C@H]1CCCN1C(=O)[C@H]1CCCN1C(=O)OCc1ccccc1)C(C)C (single isomer, unassigned) | – | inactive | inactive | inactive | inactive |
| CC(C)N(CC(=O)O)C(=O)CN(C(=O)[C@H]1CCCN1C(=O)[C@H]1CCCN1C(=O)CN(C(=O)CNCc1ccccc1)C(C)C)C(C)C (single isomer, unassigned) | – | inactive | inactive | inactive | inactive |
| CC(=O)N(CC(=O)N(CC(=O)N1CCC[C@@H]1C(=O)N1CCC[C@@H]1C(=O)N(CC(=O)N(CC(=O)N(C(C)C)C(C)C)C(C)C)Cc1ccccc1)C(C)C)Cc1ccccc1 (single isomer, unassigned) | – | inactive | inactive | inactive | inactive |
| CC(=O)N(CC(=O)N(CC(=O)N1CCC[C@@H]1C(=O)N1CCC[C@@H]1C(=O)N(CC(=O)N(CC(=O)O)C(C)C)C(C)C)C(C)C)Cc1ccccc1 (single isomer, unassigned) | – | inactive | inactive | inactive | inactive |
| CC[C@H](C)[C@@H]([C@@H](CC(=O)N1CCC[C@H]1[C@H](OC)[C@@H](C)C(=O)N[C@@H](Cc1ccccc1)c1nccs1)OC)N(C)C(=O)[C@@H](NC(=O)[C@H](C(C)C)N(C)C)C(C)C [DOLASTATIN-10] | 0.1 ng/mL (≈ 0.127 nM) | – | – | – | – |
| CC(=O)N(CC(=O)N(CC(=O)N1CCCC1C(=O)N1CCC[C@H]1C(=O)N(CC(=O)N(CC(=O)N(C(C)C)C(C)C)C(C)C)C(C)C)C(C)C)Cc1ccccc1 (single isomer, unassigned) | – | inactive | inactive | inactive | inactive |
